Here are results for seven compounds from patent publication US11504396B2 (NKMAX Co., Ltd., priority 2016, dated 2022).

In data set [1] the test system is SNU-245 (the biliary tract cancer cell line). Description: 2 day cytotoxicity assay against SNU-245 cells (pretreated or formulated NK cells, or ponatinib alone).
The subject of data set [2] is MDA-MB-231 (the breast cancer cell line). Conditions: FIG. 6B; pretreatment 24 hrs (30, 100 and 300 μM); E:T 0.5:1, 48 hrs.
The subject of data set [3] is SNU-387 (the liver cancer cell line). The data set can be described thus: 2 day cytotoxicity assay of kinase inhibitor pretreated NK cells against SNU-387.
Data set [4] has as its system AGS (the stomach cancer cell line). To be noted: FIG. 6A; pretreatment 24 hrs (30, 100 and 300 μM); E:T 0.5:1, 48 hrs.
The test system of data set [5] is human NK cells. To be noted: cited from earlier work; for NK cytokine production / NK cytotoxicity: direct exposure of human NK cells with pharmacological doses, in vitro (Krieg and Ullrich 2013).
[6] abbreviates: FIG. 7A, pretreatment 24 hrs, E:T 0.5:1, 48 hrs.
Where [7] appears, read: FIG. 7B, pretreatment 24 hrs, E:T 0.5:1, 48 hrs.
Setting [8] is: resting and IL-2-activated NK cells (Krusch et al. 2009).

Like-named read-outs stand apart in the source and are kept apart here.

For `Cc1cn(-c2cc(NC(=O)c3ccc(C)c(Nc4nccc(-c5cccnc5)n4)c3)cc(C(F)(F)F)c2)cn1` [nilotinib], in data set [1] (setting [6]), the “anti-cancer cytotoxicity of kinase inhibitor pretreated NK cells against SNU-245 vs untreated NK cells” value is on record as “did not increase”. Also, in data set [2], the “anti-cancer cytotoxicity of kinase inhibitor pretreated NK cells against MDA-MB-231 vs untreated NK cells” value was “did not show any differences”. Moreover, the “anti-cancer cytotoxicity of kinase inhibitor pretreated NK cells against SNU-387 vs untreated NK cells” value in data set [3] (setting [7]) is on record as “did not increase”. In data set [4], the “anti-cancer cytotoxicity of kinase inhibitor pretreated NK cells against AGS vs untreated NK cells” value is on record as “did not show any differences”. In addition, the NK cytokine production result in data set [5] was “negatively influenced”.

Turning to `COc1cc2c(Nc3ccc(Br)cc3F)ncnc2cc1OCC1CCN(C)CC1` [vandetanib], the “anti-cancer cytotoxicity of kinase inhibitor pretreated NK cells against SNU-245 vs untreated NK cells” value in data set [1] (setting [6]) is “did not increase”. Also, the “anti-cancer cytotoxicity of kinase inhibitor pretreated NK cells against SNU-387 vs untreated NK cells” value in data set [3] (setting [7]) is recorded as “did not increase”.

`CNC(=O)c1cc(Oc2ccc(NC(=O)Nc3ccc(Cl)c(C(F)(F)F)c3)cc2)ccn1` [sorafenib]: the “anti-cancer cytotoxicity of kinase inhibitor pretreated NK cells against SNU-245 vs untreated NK cells” value in data set [1] (setting [6]) is “did not increase”. Also, the “anti-cancer cytotoxicity of kinase inhibitor pretreated NK cells against MDA-MB-231 vs untreated NK cells” value in data set [2] is given as “did not show any differences”. Moreover, the “anti-cancer cytotoxicity of kinase inhibitor pretreated NK cells against SNU-387 vs untreated NK cells” value in data set [3] (setting [7]) is reported as “did not increase”. Further, the “anti-cancer cytotoxicity of kinase inhibitor pretreated NK cells against AGS vs untreated NK cells” value in data set [4] is recorded as “did not show any differences”. For the same compound, in data set [5] (setting [8]), the “IFN-γ production of NK cells in response to tumor targets” value is recorded as “concentration dependently inhibited” and the “cytotoxicity of NK cells in response to tumor targets” value is on record as “concentration dependently inhibited”.

Turning to `Cc1ccc(NC(=O)c2ccc(CN3CCN(C)CC3)cc2)cc1Nc1nccc(-c2cccnc2)n1` [imatinib], the “anti-cancer cytotoxicity of kinase inhibitor pretreated NK cells against SNU-245 vs untreated NK cells” value in data set [1] (setting [6]) was “did not increase”. For the same compound, the “anti-cancer cytotoxicity of kinase inhibitor pretreated NK cells against MDA-MB-231 vs untreated NK cells” value in data set [2] is recorded as “did not show any differences”. Moreover, in data set [3] (setting [7]), the “anti-cancer cytotoxicity of kinase inhibitor pretreated NK cells against SNU-387 vs untreated NK cells” value is “did not increase”. The “anti-cancer cytotoxicity of kinase inhibitor pretreated NK cells against AGS vs untreated NK cells” value in data set [4] was “did not show any differences”. Besides, in data set [5], the NK cytokine production result is “no impact” and the NK cytotoxicity result is listed as “no impact”.

For `CCN(CC)CCNC(=O)c1c(C)[nH]c(/C=C2\C(=O)Nc3ccc(F)cc32)c1C` [sunitinib], the “anti-cancer cytotoxicity of kinase inhibitor pretreated NK cells against SNU-245 vs untreated NK cells” value in data set [1] was “did not increase”. For the same compound, the “anti-cancer cytotoxicity of kinase inhibitor pretreated NK cells against MDA-MB-231 vs untreated NK cells” value in data set [2] is reported as “did not show any differences”. Further, the “anti-cancer cytotoxicity of kinase inhibitor pretreated NK cells against SNU-387 vs untreated NK cells” value in data set [3] was “did not increase”. For the same compound, in data set [4], the “anti-cancer cytotoxicity of kinase inhibitor pretreated NK cells against AGS vs untreated NK cells” value is “did not show any differences”. In addition, in data set [5], the “cytotoxicity of NK cells in response to tumor targets” value was “concentration dependently inhibited”.

With `Cc1nc(Nc2ncc(C(=O)Nc3c(C)cccc3Cl)s2)cc(N2CCN(CCO)CC2)n1` [dasatinib], the “anti-cancer cytotoxicity of kinase inhibitor pretreated NK cells against SNU-245 vs untreated NK cells” value in data set [1] (setting [6]) is “slightly increased anticancer activity”. Further, the “anti-cancer cytotoxicity of kinase inhibitor pretreated NK cells against MDA-MB-231 vs untreated NK cells” value in data set [2] was “did not show any differences”. Moreover, the “anti-cancer cytotoxicity of kinase inhibitor pretreated NK cells against SNU-387 vs untreated NK cells” value in data set [3] (setting [7]) was “did not increase”. Further, the “anti-cancer cytotoxicity of kinase inhibitor pretreated NK cells against AGS vs untreated NK cells” value in data set [4] is “did not show any differences”. Moreover, the NK cytotoxicity entry in data set [5] was “abrogated cytotoxicity”.

`COc1cc(Nc2c(C#N)cnc3cc(OCCCN4CCN(C)CC4)c(OC)cc23)c(Cl)cc1Cl` [bosutinib]: the “anti-cancer cytotoxicity of kinase inhibitor pretreated NK cells against SNU-245 vs untreated NK cells” value in data set [1] (setting [6]) is “did not increase”. In data set [3] (setting [7]), the “anti-cancer cytotoxicity of kinase inhibitor pretreated NK cells against SNU-387 vs untreated NK cells” value is given as “did not increase”.
